Results from US11918013B2, “Composition for inactivation of gram-positive bacteria and bacterial spores and methods of making and using same” (RESORCIX LTD., priority 2018, dated 2024).
In brackets after ≈: the same amount, converted by molar mass. Where two headings read alike, the source gives them in different places.

System: Alicyclobacillus acidoterrestris (JCM catalogue number 21547, IAM Culture Collection no. 15086)
Assay: MIC against Alicyclobacillus acidoterrestris in apple juice (OD600 and CFU counting)
Assay type: cell-based
Settings: 37° C.; for MIC: Alicyclobacillus acidoterrestris, 100% apple juice
Experimental: The fractions collected in Example 4, as well as Fraction 1 and nisin, a preservative presently in common use in the industry, were tested for activity by incubating for the times indicated in the table below with Alicyclobacillus acidoterrestris (JCM catalogue number 21547, IAM Culture Collection no. 15086) in apple juice. The minimum inhibitory concentration (MIC) was determined by optical density measurements at 600 nm, and by counting colony forming units (CFU) as follows: after four days of incubation at 37° C., juice samples were serially diluted in 10-fold increments (10-fold, 100-fold, 1000-fold, etc.) and plated on Potato Dextrose Agar (PDA). Plates were incubated at 45° C. for at least 48 hours, and colonies were counted to determine CFU/ml.

[1] = 48 h, 2 days of incubation, read-out: MIC (μg/ml) in 100% apple juice 2 days of incubation
[2] = 72 h, 3 days of incubation, read-out: MIC (μg/ml) in 100% apple juice 3 days of incubation
[3] = 120 h, 5 days of incubation, read-out: MIC (μg/ml) in 100% apple juice 5 days of incubation
[4] = 168 h, 7 days of incubation, read-out: MIC (μg/ml) in 100% apple juice 7 days of incubation

MIC [1] [µg/mL] | MIC [2] [µg/mL] | MIC [3] [µg/mL] | MIC [4] [µg/mL] | Structure (SMILES) | MIC (μg/ml) in 100% apple juice 2 days of incubation (2 days of incubation) [µg/mL] | MIC (μg/ml) in 100% apple juice 3 days of incubation (3 days of incubation) [µg/mL] | MIC (μg/ml) in 100% apple juice 5 days of incubation (5 days of incubation) [µg/mL] | MIC (μg/ml) in 100% apple juice 7 days of incubation (7 days of incubation) [µg/mL]
1.25 (≈ 4.11 µM) | 1.25 (≈ 4.11 µM) | 1.25 (≈ 4.11 µM) | 1.25 (≈ 4.11 µM) | C=C1CC[C@@H]2C(C)(C)CCC[C@@]2(C)[C@@H]1CC/C(C)=C/C(=O)O (single isomer, unassigned) [Sample 7, copalic acid] |  |  |  | 
1.25 (≈ 4.11 µM) | 1.25 (≈ 4.11 µM) | 1.25 (≈ 4.11 µM) | 1.25 (≈ 4.11 µM) | CC1=CCC[C@@H]2[C@@](C)(CC/C(C)=C/C(=O)O)[C@H](C)CC[C@@]12C (single isomer, unassigned) [Sample 6, Kolavenic acid] |  |  |  | 
 |  |  |  | CC(=O)OC1CC2(C)C(C(=O)O)=CCCC2C(C)(CCc2ccoc2)C1C (stereo not drawn) [Sample 3, 7-α-acetoxyhardwickiic acid] | 2.5 | 5 | 5 | 5
